Data taken from patent US7749992B2, “Compounds and methods for treating dislipidemia” (Eli Lilly and Company, priority 2003, dated 2010).

system: transgenic mice that express both human CETP and human apolipoprotein A-1; test: Assay of plasma lipids in vivo (elevation of HDL cholesterol); details: single oral dose 30 mg/kg; at 8 hr; serum HDL cholesterol relative to control
Experimental: Activity of compounds of this invention in vivo can be determined by the level of elevation of HDL cholesterol relative to control by a given amount of compound in a CETP-containing animal species. A strain of transgenic mice that express both human CETP and human apolipoprotein A-1 (Taconic, Germantown, N.Y.) is used to test compounds of this invention. Test compounds are administered once orally in selected aqueous or oil based vehicles. At various times after dosing, ranging from 4 h to 24 h, blood is obtained. Blood is allowed to clot and serum is obtained by centrifugation. HDL cholesterol levels in the serum is determined by HDL-C plus reagents (Roche/Hitachi, Indianapolis, Ind.) with a clinical chemistry analyzer (Roche/Hitachi, Indianapolis, Ind.). Additional serum lipids can be analyzed by enzymatic methods. Lipids in the VLDL, LDL and HDL fractions are analyzed by enzymatic methods after precipitation or size exclusion chromatography.

Question: How did the “% HDL cholesterol increase” value turn out when `CC(=O)N(Cc1cc(C(F)(F)F)cc(C(F)(F)F)c1)[C@H]1CCCN(C(=O)OC(C)(C)C)c2cc(C(F)(F)F)c(C)cc21` [Example 119, (S)-5-[Acetyl-(3,5-bis-trifluoromethyl-benzyl)-amino]-7-methyl-8-trifluoromethyl-2,3,4,5-tetrahydro-benzo[b]azepine-1-carboxylic acid tert-butyl ester] was run?
Answer: Its value is 123%.

target: T1, human CETP (Homo sapiens, UniProt P11597); test: In vitro CETP inhibitor assay: SPA assay; format: biochemical; details: CETP produced by AV-12 cells expressing human CETP; [3H]cholesterol ester transfer from HDL to biotinylated LDL; 30-minute incubation at 37 C; HEPES-NaCl based buffer; read-out: Inhibition of CETP Activity (SPA assay) IC50
T1 construct: made in house; host or cells: AV-12 cells (engineered to express human CETP)
T1 sequence (P11597 18-493): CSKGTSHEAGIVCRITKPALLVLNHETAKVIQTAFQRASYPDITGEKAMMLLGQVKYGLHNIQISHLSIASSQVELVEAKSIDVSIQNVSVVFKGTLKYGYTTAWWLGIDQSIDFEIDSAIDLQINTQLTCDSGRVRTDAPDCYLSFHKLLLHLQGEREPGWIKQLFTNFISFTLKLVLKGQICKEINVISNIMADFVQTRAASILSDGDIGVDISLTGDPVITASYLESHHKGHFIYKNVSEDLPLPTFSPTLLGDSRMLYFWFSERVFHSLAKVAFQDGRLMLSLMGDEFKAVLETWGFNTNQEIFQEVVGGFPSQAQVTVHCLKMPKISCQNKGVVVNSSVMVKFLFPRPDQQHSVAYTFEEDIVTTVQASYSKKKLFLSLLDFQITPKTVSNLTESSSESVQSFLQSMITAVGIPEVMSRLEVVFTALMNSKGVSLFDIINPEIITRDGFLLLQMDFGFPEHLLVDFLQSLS
Experimental: An in vitro scintillation proximity assay (SPA) has been used to test the ability of compounds of this invention to inhibit the transfer of radiolabeled cholesterol esters between HDL and LDL. This assay monitors the inhibition of the transfer of [^3H]cholesterol esters from HDL (Amersham) to biotinylated LDL (Amersham) by a CETP source. CETP produced by AV-12 cells that have been created to express human CETP has been used to mediate the transfer. After a 30-minute incubation at 37 C in which the radiolabeled cholesterol ester is transferred in a HEPES-NaCl based buffer, the reaction is stopped and the biotinylated LDL is bound to streptavidin/scintillant coated SPA beads (Amersham). Then the radioactive signal is measured in a Packard 96-well scintillation TopCounter with window settings fully open. Compounds of this invention can be added to the reaction mixture in an appropriate solvent to assess their ability to inhibit the transfer of the radiolabeled cholesterol esters by CETP, represented by a decrease in radioactive signal. The activity transferred in the reaction mixtures with control solvents is rated as 100% transfer. The compound concentration at which the activity is midway between 100% and the lowest recorded activity is indicated as the IC50 value. A three-parameter fixed top logistic curve-fitting algorithm is used to generate the IC50 value.

Question: `CC(=O)N(Cc1cc(C(F)(F)F)cc(C(F)(F)F)c1)[C@H]1CCCN(C(=O)OC(C)(C)C)c2cc(C(F)(F)F)c(C)cc21` [Example 119, (S)-5-[Acetyl-(3,5-bis-trifluoromethyl-benzyl)-amino]-7-methyl-8-trifluoromethyl-2,3,4,5-tetrahydro-benzo[b]azepine-1-carboxylic acid tert-butyl ester] was tested. Which IC50 did it give?
Answer: Its IC50 is 42 nM.

Question: Which IC50 does the source give for `CC(=O)N(Cc1cc(C(F)(F)F)cc(C(F)(F)F)c1)C1CCCN(C(=O)OC(C)(C)C)c2cc(C(F)(F)F)c(C)cc21` (stereo not shown) [Example 117, 5-[Acetyl-(3,5-bis-trifluoromethyl-benzyl)-amino]-7-methyl-8-trifluoromethyl-2,3,4,5-tetrahydro-benzo[b]azepine-1-carboxylic acid tert-butyl ester] here?
Answer: The IC50 was 65 nM.

Question: Which IC50 does the source give for `CC(=O)N(Cc1cc(C(F)(F)F)cc(C(F)(F)F)c1)C1CCCN(C(=O)OC2CCCC2)c2cc(OC(F)(F)F)c(C)cc21` (stereo not shown) [Example 182, 5-[Acetyl-(3,5-bis-trifluoromethyl-benzyl)-amino]-7-methyl-8-trifluoromethoxy-2,3,4,5-tetrahydro-benzo[b]azepine-1-carboxylic acid cyclopentyl ester] here?
Answer: The IC50 was 191 nM.

Question: With `CC(=O)N(Cc1cc(C(F)(F)F)cc(C(F)(F)F)c1)[C@H]1CCCN(C(=O)OC(C)C)c2cc(C(F)(F)F)c(C)cc21` [Example 111, (S)-5-[Acetyl-(3,5-bis-trifluoromethyl-benzyl)-amino]-7-methyl-8-trifluoromethyl-2,3,4,5-tetrahydro-benzo[b]azepine-1-carboxylic acid isopropyl ester] as the compound, how does the IC50 read?
Answer: The IC50 was 68 nM.

Question: Which IC50 does the source give for `CC(=O)N(Cc1cc(C(F)(F)F)cc(C(F)(F)F)c1)C1CCCN(C(=O)OC(C)C)c2c1ccc1c2CCC1` (racemic) [Example 129, (+/−)-6-[Acetyl-(3,5-bis-trifluoromethyl-benzyl)-amino]-2,3,6,7,8,9-hexahydro-1H-10-aza-cyclohepta[e]indene-10-carboxylic acid isopropyl ester] here?
Answer: The IC50 was 54 nM.

Question: `CC(=O)N(Cc1cc(C(F)(F)F)cc(C(F)(F)F)c1)C1CCCN(C(=O)OC(C)C)c2ccccc21` (stereo not shown) [Example 1, 5-[Acetyl-(3,5-bis-trifluoromethyl-benzyl)-amino]-2,3,4,5-tetrahydro-benzo[b]azepine-1-carboxylic acid isopropyl ester] was tested. Which IC50 did it give?
Answer: Its IC50 is 293 nM.
